Source: publication PMC5298231, “The Malaria Parasite's Lactate Transporter PfFNT Is the Target of Antiplasmodial Compounds Identified in Whole Cell Phenotypic Screens” (PLoS Pathogens, 2017)
Entries after “also recorded” stand apart in the source; their conditions may differ.

Key:
[1] = system: MMV007839-selected culture B (PfFNT Gly107Ser); experiment: Parasite proliferation assay, MMV007839-selected culture B; format: cell-based, Plasmodium falciparum; conditions: Plasmodium falciparum, read-out: IC50 value, growth inhibition
Method: (§1) Parasite proliferation was measured in 96-well plates using a fluorescent DNA-intercalating dye. The assays were initiated with erythrocytes infected with predominantly ring-stage parasites, and the starting parasitaemia was 0.5–1% and the haematocrit was 1%.
(§2) For MMV007839-selected culture A, the drug concentration was increased by 5 nM increments on Day 18, Day 21, and every two days thereafter. […] The cultures were provided with fresh medium and blood and diluted to reduce the parasitaemia as needed.

[2] = system: MMV007839-selected culture A (PfFNT Gly107Ser); experiment: Parasite proliferation assay, MMV007839-selected culture A; format: cell-based, Plasmodium falciparum
Method: as §1, §2

Dd2 parent parasites = experiment: Parasite proliferation assay, Dd2 parent; format: cell-based, Plasmodium falciparum; conditions: Plasmodium falciparum, DD2, read-out: IC50 value, growth inhibition
Method: Parasite proliferation was measured in 96-well plates using a fluorescent DNA-intercalating dye [45]. The assays were initiated with erythrocytes infected with predominantly ring-stage parasites, and the starting parasitaemia was 0.5–1% and the haematocrit was 1%.

3D7 parasites = conditions: ref [1] Van Voorhis et al. 2016; read-out: IC50 for killing of 3D7 parasites; cited from earlier work
[3] = system: isolated 3D7 P. falciparum trophozoites; experiment: L-[14C]lactate uptake by isolated 3D7 trophozoites; conditions: 50 μM; pH 6.1, 4°C; control (DMSO) 6.7 ± 0.4; mean ± SEM
Dd2 parental parasites = experiment: L-[14C]lactate uptake by isolated Dd2 parental parasites; conditions: 100 μM; parental parasites; pH 6.1, 4°C
[4] = system: PfFNT^Gly107Ser mutant parasites (MMV007839-selected culture B); experiment: L-[14C]lactate uptake by isolated PfFNT Gly107Ser mutant parasites; conditions: 100 μM, pH 6.1, 4°C
[5] = system: erythrocytes infected with 3D7 trophozoites; format: cell-based, Plasmodium falciparum; conditions: sheet Ratio; for Ratio of metabolite abundance, Exp1_1hr: Exp1, 1hr; for Ratio of metabolite abundance, Exp1_3hr: Exp1, 3hr; for Ratio of metabolite abundance, Exp1_6hr: Exp1, 6hr; for Ratio of metabolite abundance, Exp2_1hr: Exp2, 1hr; for Ratio of metabolite abundance, Exp2_3hr: Exp2, 3hr; for Ratio of metabolite abundance, Exp2_6hr: Exp2, 6hr; for Ratio of metabolite abundance, Exp3_1hr: Exp3, 1hr; for Ratio of metabolite abundance, Exp3_3hr: Exp3, 3hr; for Ratio of metabolite abundance, Exp3_6hr: Exp3, 6hr

SMILES | IC50 (3D7 parasites) [nM] | Ratio of metabolite abundance, Exp1_1hr [5] | Ratio of metabolite abundance, Exp1_3hr [5] | Ratio of metabolite abundance, Exp1_6hr [5] | Ratio of metabolite abundance, Exp2_1hr [5] | Ratio of metabolite abundance, Exp2_3hr [5] | Ratio of metabolite abundance, Exp2_6hr [5] | Ratio of metabolite abundance, Exp3_1hr [5] | Ratio of metabolite abundance, Exp3_3hr [5] | Ratio of metabolite abundance, Exp3_6hr [5] | further results
C[C@@H]1CC[C@H]2[C@@H](C)C(=O)O[C@@H]3O[C@@]4(C)CC[C@@H]1[C@]32OO4 [Artemisinin, reference compound] | – | – | – | – | – | – | – | – | – | – | IC50 [1]: 16.5 ± 0.4 nM; IC50 ([2]; Plasmodium falciparum, MMV007839-selected culture A, mean ± SEM, read-out: IC50 value, growth inhibition): 22 ± 3.3 nM; Response of MMV007839-selected cultures compared with Dd2 parental parasites ([2]; both MMV007839-selected cultures (A and B), P > 0.1): not significantly different; also recorded: not affecting; IC50 (Dd2 parent parasites): 15.6 nM
CC(C)OCc1cc(CN2CCN(c3cccc(Cl)c3)CC2)c(O)c2ncccc12 [MMV000788] | 700 | – | – | – | – | – | – | – | – | – | –
Brc1ccc(Nc2nc3ccccc3nc2Nc2ccc(Br)cc2)cc1 [MMV007224] | 1060 | – | – | – | – | – | – | – | – | – | –
Cc1ccc(Nc2nc(-c3ccccn3)cs2)cc1 [MMV007907] | 350 | – | – | – | – | – | – | – | – | – | –
Cc1cccc(-n2ncc3c(O)nc(-n4nc(C)cc4NC(=O)c4cc5ccccc5o4)nc32)c1 [MMV403679] | 930 | – | – | – | – | – | – | – | – | – | –
FC(F)(F)c1cccc(Nc2nc3ccccc3nc2Nc2cccc(C(F)(F)F)c2)c1 [MMV665794] | 310 | – | – | – | – | – | – | – | – | – | –
O=C(Nc1ccc(Cl)c(Cl)c1)Nc1ccc(Cl)c(Cl)c1 [MMV665852] | 1160 | – | – | – | – | – | – | – | – | – | –
CCCCNc1nc(NC(C)(C)C)nc(NC(C)(C)C)n1 [MMV665864] | 710 | – | – | – | – | – | – | – | – | – | –
O=C(Nc1nc(-c2ccccn2)cs1)c1ccccc1Br [MMV665909] | 1360 | – | – | – | – | – | – | – | – | – | –
O=C(Nc1ccc(F)c(Cl)c1)Nc1ccc(Cl)c(Cl)c1 [MMV665953] | 2060 | – | – | – | – | – | – | – | – | – | –
O=C(Cc1ccccc1)NC(c1ccc(Cl)cc1)c1c(O)ccc2ccccc12 (stereo not shown) [MMV665972] | 1140 | – | – | – | – | – | – | – | – | – | –
CCCCCCc1cc(O)c2c3c(c(=O)oc2c1)CCC(C)C3 (stereo not shown) [MMV665987] | 530 | – | – | – | – | – | – | – | – | – | –
O=C(NC(c1ccccc1)c1ccc2cccnc2c1O)c1ccccc1 (stereo not shown) [MMV666080] | 1170 | – | – | – | – | – | – | – | – | – | –
O=C(O)c1cc([N+](=O)[O-])ccc1NCCCc1ccccc1 [NPPB, reference compound] | – | – | – | – | – | – | – | – | – | – | L-[14C]lactate distribution ratio at 20 s [3]: 0.4 ± 0.1; Effect on rate of L-[14C]lactate influx (Dd2 parental parasites): reduced the rate; Effect on rate of L-[14C]lactate influx [4]: reduced the rate
CC(=O)N[C@H]1[C@@H](OP(=O)(O)OP(=O)(O)OC[C@H]2O[C@@H](n3ccc(=O)[nH]c3=O)[C@H](O)[C@@H]2O)O[C@H](CO)[C@@H](O)[C@@H]1O [UDP-N-acetyl-D-glucosamine] | – | 1.076 | 0.9078 | 0.813 | 0.9909 | 1.08 | 0.8625 | 1.118 | 1.138 | 0.9727 | –
O=c1ccn([C@@H]2O[C@H](COP(=O)(O)OP(=O)(O)O)[C@@H](O)[C@H]2O)c(=O)[nH]1 [UDP] | – | 0.7834 | 0.4305 | 0.5124 | 1.213 | 0.7051 | 0.7343 | 0.7602 | 0.7434 | 0.9366 | –
O=c1ccn([C@@H]2O[C@H](COP(=O)(O)O)[C@@H](O)[C@H]2O)c(=O)[nH]1 [UMP] | – | 0.9634 | 0.9303 | 0.812 | 0.4945 | 0.6514 | 1.0366 | 0.9925 | 0.9562 | 0.9948 | –
CC(C)[C@H](N)C(=O)N[C@@H](CC(=O)O)C(=O)O [VD] | – | 1.809 | 1.252 | 2.887 | 2.091 | 1.368 | 1.996 | 11.5926 | 5.435 | 7.8446 | –
Nc1ncnc2c1ncn2[C@H]1C[C@H](O)[C@@H](COP(=O)(O)OP(=O)(O)O)O1 [dADP] | – | 0.4339 | 0.1672 | 0.2747 | 1.0009 | 0.9609 | 1.167 | 1.173 | 0.5208 | 1.268 | –
Nc1ncnc2c1ncn2[C@H]1C[C@H](O)[C@@H](COP(=O)(O)OP(=O)(O)OP(=O)(O)O)O1 [dATP] | – | 0.9995 | 0.8537 | 0.9613 | 1.009 | 1.102 | 1.077 | 1.104 | 0.9965 | 1.005 | –
Nc1ccn([C@H]2C[C@H](O)[C@@H](COP(=O)(O)OP(=O)(O)O)O2)c(=O)n1 [dCDP] | – | 1.169 | 1.109 | 1.155 | 1.1851 | 1.387 | 1.852 | 1.354 | 1.295 | 1.494 | –
Nc1nc2c(ncn2[C@H]2C[C@H](O)[C@@H](COP(=O)(O)O)O2)c(=O)[nH]1 [dGMP] | – | 1.008 | 1.65 | 0.6713 | 1.04 | 0.9344 | 0.8266 | 1.138 | 0.9165 | 0.8614 | –
Cc1cn([C@H]2C[C@H](O)[C@@H](COP(=O)(O)O)O2)c(=O)[nH]c1=O [dTMP] | – | 1.094 | 1.051 | 1.314 | 1.082 | 1.005 | 1.669 | 0.8062 | 1.245 | 1.203 | –
Cc1cn([C@H]2C[C@H](O)[C@@H](COP(=O)(O)OP(=O)(O)OP(=O)(O)O)O2)c(=O)[nH]c1=O [dTTP] | – | 1.097 | 0.6301 | 0.6957 | 1.256 | 1.272 | 1.427 | 1.1105 | 1.053 | 1.149 | –
O=c1ccn([C@H]2C[C@H](O)[C@@H](COP(=O)(O)O)O2)c(=O)[nH]1 [dUMP] | – | 3.473 | 5.178 | 2.302 | 3.524 | 1.859 | 4.376 | 1.122 | 1.775 | 0.8871 | –
O=P(O)(O)OC[C@H](O)CO [sn-Glycerol 3-phosphate] | – | 2.74 | 3.024 | 2.283 | 2.716 | 2.322 | 2.253 | 2.3639 | 3.645 | 2.752 | –
O=P(O)(OC[C@H](O)CO)OC1[C@H](O)[C@H](O)C(O)[C@H](O)[C@H]1O (stereo partly shown) [sn-glycero-3-Phospho-1-inositol] | – | 0.9506 | 1.24 | 0.9287 | 1.0526 | 1.0759 | 1.139 | 0.7659 | 1.067 | 1.2236 | –
